{"source": "patent US8729014B2", "about": "“Specific HCV NS3 protease inhibitors” (RFS Pharma, LLC, priority 2010, dated 2014)", "tested_on": "HCV replicon RNA in Huh 7 Clone B cells", "test": "HCV replicon assay (replicon RNA, real time RT-PCR)", "assay_type": "cell-based", "settings": "for DCt HCV / HCV (% inhibition of replicon RNA): five days", "description": "Following five days incubation (37° C., 5% CO2), total cellular RNA was isolated by using versaGene RNA purification kit from Gentra. Replicon RNA and an internal control (TaqMan rRNA control reagents, Applied Biosystems) were amplified in a single step multiplex Real Time RT-PCR Assay. The antiviral effectiveness of the compounds was calculated by subtracting the threshold RT-PCR cycle of the test compound from the threshold RT-PCR cycle of the no-drug control (ΔCt HCV). A ΔCt of 3.3 equals a 1-log reduction (equal to 90% less starting material) in Replicon RNA levels. The cytotoxicity of the compounds was also calculated by using the ΔCt rRNA values. (2′-Me-C) was used as the control. To determine EC90 and IC50 values^2, ΔCt: values were first converted into fraction of starting material^3 and then were used to calculate the % inhibition.", "key": {"[1]": {"settings": "Hepatitis C virus, HCV replicon, Huh 7 Clone B cells"}}, "data": [{"compound": "C=C[C@@H]1C[C@]1(NC(=O)[C@@H]1C[C@@H](OC(=O)N2Cc3cccc(F)c3C2)CN1C(=O)[C@@H](NC(=O)OC(C)(C)C)C(C)(C)C)C(=O)NS(=O)(=O)C1CC1", "note": "[Compound 10]", "values": [{"measurement": "DCt HCV", "setting": "Conc 0.01 μM", "value": 1.16}, {"measurement": "HCV (% inhibition of replicon RNA)", "setting": "Conc 0.01 μM", "value": 54.99}, {"measurement": "DCt HCV", "setting": "Conc 0.03 μM", "value": 3.29}, {"measurement": "HCV (% inhibition of replicon RNA)", "setting": "Conc 0.03 μM", "value": 89.67}, {"measurement": "DCt HCV", "setting": "Conc 0.1 μM", "value": 6.05}, {"measurement": "HCV (% inhibition of replicon RNA)", "setting": "Conc 0.1 μM", "value": 98.47}, {"measurement": "DCt HCV", "setting": "Conc 0.3 μM", "value": 8.72}, {"measurement": "HCV (% inhibition of replicon RNA)", "setting": "Conc 0.3 μM", "value": 99.76}, {"measurement": "EC50", "setting": "[1]", "value": 10, "unit": "nM"}, {"measurement": "EC90", "setting": "[1]", "value": 30, "unit": "nM"}]}]}
